Assay results from patent publication US20100311170A1, “METHOD FOR REPROGRAMMING DIFFERENTIATED CELLS” (priority 2008, published 2010).

Key:
Format in all cases: cell-based, mouse
[1] = tested on: ES-neo×NS-Oct4-puro cells; assay: PEG fusion of ES-neo cells with NS-Oct4-puro cells, hybrids treated after fusion; AP-positive puromycin-resistant reprogrammed colonies counted; settings: for reprogrammed clones with respect to the control (fold): 24 h culture after fusion, Wnt3a 100 ng/ml or BIO 1 μM; for number of reprogrammed clones after prolonged treatment: 48 h of treatment after fusion
Description: (§1) ES×NS and ES×MEF PEG fusions: 1.2×10^6 NS cells or MEFs were plated into T25 flasks. After 2 h, 1.2×10^6 ES cells were plated onto them, allowing them to attach to the NS cells or MEFs.

ES-neo×MEF-hygro = assay: PEG fusion of ES-neo cells with MEF-hygro cells, hybrids treated after fusion; reprogrammed AP-positive clones counted
Description: as §1

[2] = tested on: ES-hygro×thymocyte-neo cells; assay: ES×thymocyte fusion, hybrids cultured in BIO; reprogrammed clones counted
Description: ES×thymocyte fusions: the cells were fused in suspensions as previously described (Silva et al., 2006). After fusion, they were packed by centrifugation and the supernatant was discarded. The pelleted cells were resuspended in complete ES-cell medium and plated. The selection was carried out after 24 h, using hygromycin plus neomycin.

[3] = tested on: ES cells fused with NS-Oct4-puro cells; assay: Pretreated-ES×NS PEG fusions (ES cells pre-cultured with Wnt3a or BIO, then fused with non-treated NS-Oct4-puro cells); settings: for enhancement of NS reprogramming: ES cells cultured for 12, 48 and 72 h; for total reprogrammed clones / increase in the numbers of reprogrammed clones: ES cells pre-cultured for 24 h and 96 h; for increase in the numbers of reprogrammed clones: Wnt3a 100 ng/ml or BIO 1 μM
Description: On the last day, the cells were trypsinized, counted, and plated on NS cells for fusions or harvested for RNA and protein analyses. PEG fusions and drug selection were performed as previously described.

NS-Oct4-puro cells = assay: BIO-pretreated NS-Oct4-puro cells fused with non-treated ES-neo cells; settings: NS cells pretreated with BIO before fusion
Description: FIG. 12. […] (A) Plates containing fused hybrid colonies between BIO-treated NS-Oct4-puro cells and non-treated ES-neo cells. The clones were stained for the expression of AP and counted. The fold-change increases in the reprogrammed colonies are shown in the graph (mean±s.e.m.; n=3). (B) Example of a reprogrammed colony isolated from ES-neo cells fused with NS-Oct4-puro cells pretreated with BIO for 24 h. (C) Western blotting of total protein extracts of the NS-Oct4-puro cells at the indicated treatment times.
ES×NS and ES×MEF PEG fusions: 1.2×10^6 NS cells or MEFs were plated into T25 flasks. After 2 h, 1.2×10^6 ES cells were plated onto them, allowing them to attach to the NS cells or MEFs. After a further 2 h, 1 ml 50% (w/v) PEG 1450 (Sigma; pre-warmed to 37° C.) was added for 2 min, and then the cells were washed three times with serum-free DMEM. […] After 12 h, the cells were trypsinized and plated into gelatin+laminin-treated p100 dishes. For the ES×NS selection, puromycin was added after 72 h, while for the ES×MEF selection, hygromycin plus neomycin were added after 24 h.

[4] = tested on: ES-neo cells and ES×NS reprogrammed hybrids; assay: Clonogenicity and viability of ES cells and hybrids plated in BIO-containing medium; settings: scaled numbers plated
Description: FIG. 4. […] ES-neo cells (A) and ES×NS reprogrammed hybrids (B) (treated or not for 24 h with BIO) were plated at different densities. After 10 days, the plates were stained for AP and counted. The fold-changes in colonies are shown in the graphs (mean±s.e.m.; n=3).

[5] = tested on: Topflash reporter gene (β-catenin binding sites fused to luciferase); assay: Topflash luciferase reporter assay in ES cells; settings: 24 h
Description: ES cells were co-transfected by nucleofection (Amaxa) with the Topflash reporter construct driving firefly luciferase cDNA and a pRL-CMV driving constitutive expression of renilla cDNA for normalization. Treatments with Wnt3a and BIO were carried out the day after the nucleofection and cells were lysed with 1× passive reporter lysis buffer. Firefly and renilla reporter activities were measured using a 96-well-based luminometer and were detected as per manufacturer instructions (Promega Dual-Light system),

[6] = tested on: ES-neo cells with ES-Hygro cells; assay: PEG fusion of BIO-pretreated ES-neo cells with ES-Hygro cells (fusion control)
Description: FIG. 6. […] Plates containing fused hybrid colonies between ES-neo cells (treated or not for 24 h with BIO) and non-treated ES-hygro cells. The clones were stained for the expression of AP and counted. The fold-change of colonies are shown in the graphs (mean±s.e.m.; n=3). (B) Quantification (as fold-increases in the number of colonies) of hybrid colonies from PEG fusions of ES-neo cells with NS-Oct4-puro cells. Hybrids from two fusion experiments (2,000,000 cells/flask) were allowed to recover for 3 h after PEG fusion. They were then pooled and divided in 5 plates ([…]) in such a way that the cells were not touching each other. Two hours after the plating, the cells were treated with BIO, as indicated. The fold-change increases in the reprogrammed colonies are shown in the graphs (mean±s.e.m.; n=3).

[7] = tested on: ES-GFP cells with NS-Oct4-puro cells; assay: FACS analysis of the primary fusion products (ES-GFP × NS-Oct4-puro, 3 h after PEG fusion)
Description: ES-GFP cells were treated or not with BIO for 12, 24, 48, 72 and 96 h and subsequently PEG fused with NS-Oct4-puro cells. Hybrids were trypsinized, counted, resuspended in PBS (1×10^6 cells per point) and centrifuged. Then, 0.1 ml of 4% paraformaldehyde solution was added to the cells and they were incubated for 15 min. Blocking solution (0.1% Triton, 10% goat-serum, in PBS) was subsequently added and the cells incubated for 1 h. The cells were then labelled with α-nestin (1:100) (ab6142, Abcan) overnight. The day after, the cells were incubated with the secondary antibody conjugated with PE fluorocrome (1:50) (ab7002 Abcam) for 1 h. FACS analyses were performed using a BDBiosciences FACSAria cytometer.

NS cells = assay: Toxicity of BIO to NS cells (data not shown); settings: BIO concentrations higher than 1 μM
β-catenin = assay: Western blotting and immunofluorescence of β-catenin in treated ES cells
Description: ES cells were washed twice with phosphate-buffered saline (PBS), fixed with 4% paraformaldehyde and blocked in 5% goat serum for 40 min. […] The cells were then washed and mounted on slides with a few drops of Vectashield with DAPI (Vector Laboratories).

[8] = tested on: Nanog, Oct4, Rex1, Fgf4, c-Myc; assay: Semiquantitative and quantitative RT-PCR of ES-cell genes and β-catenin targets in pretreated ES cells; settings: for expression of pluripotent genes Nanog, Oct4, Rex1 and Fgf4: all treatment times; for c-Myc expression: under Wnt3a and BIO treatments
Description: For RT-PCR, the total RNA was extracted from ES cells and from embryoid bodies (200 embryoid bodies for each clone and for each differentiation time point) using the RNeasy Kit (Qiagen), and the cDNA was generated using superscript III (Invitrogen). The primers used were: […]
RNA isolation and reverse transcription were carried out as described for semiquantitative RT-PCR. The template for each PCR reaction was the cDNA obtained from 16 ng total RNA in a 25-μl reaction volume. Platinum SYBR green qPCix-UDG (Invitrogen) was used with an ABprism 7000 real-time PCR machine, according to the manufacturer recommendations. The primers used were: […]

[9] = tested on: EF4 cells and NS-Oct4-(LV-Hygro) cells; assay: PEG fusions between BIO-pretreated EF4 (Nanog over-expressing) cells and NS-Oct4-(LV-Hygro) cells; settings: BIO-pretreated EF4 cells
Description: NS-Oct4-(LV-Hygro) cells were derived from NS-Oct4-puro and transduced with the letiviral pHRcPPT-PGK-Hygromycin vector. EF4 cells carrying the CAG promoter driving Nanog and Puromycin resistance genes were a gift of Dr. I. Chambers. Cells were cultured as previously described (Chambers et al., 2003).
NS×ES-Hygro or NS-HygroxEF4 cells PEG fusions were done as previously described. For the NS×ES-Hygro and NS×EF4 selection, Puromycin plus Hygromycin was added after 72 h.

[10] = cultured in BIO for 12, 24 and 48 h, double-drug selected
[11] = increased treatment time with BIO
[12] = increasing BIO concentrations, 24 h

## O=C1Nc2cc(Br)ccc2/C1=C1/Nc2ccccc2/C1=N\O [BIO, 6-bromoindirubin-3′-oxime]
[1]
  reprogrammed clones with respect to the control (fold): up to 70 fold
  number of reprogrammed clones after prolonged treatment: decreased
[1]; hybrids re-plated 3 h after fusion at a dilution without cell contact, BIO for 12, 24, 48 and 72 h
  time of BIO treatment giving the peak of reprogrammed clones: 24 h
ES-neo×MEF-hygro; [10]
  increase in numbers of reprogrammed selected clones vs fusions in the absence of BIO: up to 20 fold
ES-neo×MEF-hygro; [11]
  reprogramming efficiency with increased treatment time: lower
[2]; [10]
  increase in numbers of reprogrammed selected clones vs fusions in the absence of BIO: ≤ 9 fold
[2]; [11]
  reprogramming efficiency with increased treatment time: lower
[3]
  enhancement of NS reprogramming: poor enhancement
  total reprogrammed clones: about 2,000 total clones
  increase in the numbers of reprogrammed clones: ≤ 80 fold
NS-Oct4-puro cells
  number of ES-cell-like, AP-positive reprogrammed clones: only a slight increase
[4]
  clonogenicity and viability in absence vs presence of BIO: equal
[5]; 1 μM BIO
  activation of the Topflash reporter gene: relatively limited activation
[5]; increasing BIO concentrations
  Topflash activation with increasing concentration: increased Topflash activation
[6]
  number of clones after ES×ES fusion (PEG-mediated fusion): only a slight increase
[7]
  number of hybrid clones, ES cells pre-treated or not with BIO before fusion: same number of hybrid clones
NS cells
  toxicity to NS cells: slightly toxic
β-catenin; 1 μM BIO
  inhibition of GSK-3 in ES cells: not fully inhibited
β-catenin; [12]
  levels of phospho-β-catenin with increasing concentration: decreased levels of phospho-β-catenin
  β-catenin nuclear localization with increasing concentration: increased β-catenin nuclear localization
[8]
  expression of pluripotent genes Nanog, Oct4, Rex1 and Fgf4: same levels
  c-Myc expression: constantly expressed
[9]
  reprogramming of NS cells with Nanog over-expression plus Wnt pathway activation: cooperate to enhance reprogramming

B1: Wnt3a: Wnt protein isoform (R&D), Wnt/β-catenin pathway activator (protein, UniProt P56704 19-352, looked up)
Protein Wnt-3a: SYPIWWSLAVGPQYSSLGSQPILCASIPGLVPKQLRFCRNYVEIMPSVAEGIKIGIQECQHQFRGRRWNCTTVHDSLAIFGPVLDKATRESAFVHAIASAGVAFAVTRSCAEGTAAICGCSSRHQGSPGKGWKWGGCSEDIEFGGMVSREFADARENRPDARSAMNRHNNEAGRQAIASHMHLKCKCHGLSGSCEVKTCWWSQPDFRAIGDFLKDKYDSASEMVVEKHRESRGWVETLRPRYTYFKVPTERDLVYYEASPNFCEPNPETGSFGTRDRTCNVSSHGIDGCDLLCCGRGHNARAERRREKCRCVFHWCCYVSCQECTRVYDVHTCK
[1]
  reprogrammed clones with respect to the control (fold): up to 20 fold
  number of reprogrammed clones after prolonged treatment: decreased
ES-neo×MEF-hygro; hybrids cultured with Wnt3a for 48 h
  increase in number of AP-positive reprogrammed clones: up to 5 fold
[3]
  enhancement of NS reprogramming: poor enhancement
  total reprogrammed clones: about 600 total clones
  increase in the numbers of reprogrammed clones: Up to 15 fold
[8]
  expression of pluripotent genes Nanog, Oct4, Rex1 and Fgf4: same levels
  c-Myc expression: constantly expressed
